Source: US8110681B2, “Compounds for the treatment of spinal muscular atrophy and other uses” (The United States of America as represented by the …, priority 2006, dated 2012)
Values joined by “and” are separate entries in the source; they are usually repeats but may differ in a detail not shown here. Equal values may be shown once. Read-outs that look alike come from different tables or passages of the source.

How the values were obtained:
[1] = Plasma and brain pharmacokinetics in mice; type: in vivo, FVB or CD-1 mice; conditions: single dose; for Kp / half-life / AUC: mouse; for Kp: brain and plasma, read-out: Brain/Plasma Ratio
Experimental: Compounds were formulated in solution using the method of cosolvency as described by Lee et al., Int. J. Pharmaceutics, 253: 111-119 (2003). FVB or CD-1 mice, approximately 5 weeks old, were given a single dose of compound at the indicated concentration. Compounds were administered orally, with the exception of ALB-116638 and ALB-117573, which were administered IV. Three to five mice were euthanized at various times between 15 minutes and 24 hours after dosing and brain and plasma were harvested. Tissues were homogenized in acetonitrile and analyzed on an API 4000 LC/MS/MS system coupled with an Agilent 1100 series liquid chromatograph. All pharmacokinetic analyses were conducted using WinNonlin (Version 4.01; Pharsight, Palo Alto, Calif.) with the exception of brain/plasma ratios, which were calculated using Microsoft Excel 2000. AUC values are the area under the concentration-time curve from time zero to the last measured time point. The half life values are extrapolated from 3-4 time points taken at less than 4 hours after dosing.

[2] = tested on: luciferase reporter containing the UAG stop codon; assay: Translational read-through luciferase reporter assay, UAG stop codon; type: cell-based; conditions: read-out: MaxFold Increase
From the text: This assay is described in detail in WO 01/44516 A2. This is a cell-based luciferase reporter assay designed to detect translational read-through via insertion of a translational stop codon within the luciferase coding sequence. In the presence of compounds that promote read-through of translational stop codons, active luciferase is produced and detected via chemiluminescence. We have shown that indoprofen analogs are active in two versions of this assay—one containing a UGA stop codon and one containing a UAG stop codon. The data in the table is from the luciferase reporter containing the UAG stop codon. This is the first stop codon downstream of the improper splice junction between exons 6 and 8 in the human SMN2 transcript.

[3] = tested on: SMN2-linked luciferase-reporter gene construct; assay: SMN splice reporter assay (SMN2-linked luciferase reporter, Example 10); type: cell-based; conditions: for maximal fold induction: read-out: SMN Splice Reporter Assay (Example 10) Avg MaxFold Increase
Procedure, shortened: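 Cervical carcinoma cells stably carrying an SMN2–luciferase splice reporter, in which luciferase is in frame only when SMN2 exon 7 is included, were treated with compound. Luciferase activity was read and expressed as fold increase over untreated transformed cells.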

[4] = tested on: human GLT-1/EAAT-2 promoter; assay: GLT-1/EAAT-2 promoter luciferase reporter assay in COS-7 cells; type: cell-based; conditions: COS-7 pE2P-GL3 (clone 4), 48 h; for maximal fold induction: Homo sapiens, normalized to DMSO control, read-out: Max Fold-Induction
Experimental: The astroglial glutamate transporter, GLT-1/EAAT-2, is responsible for the majority of glutamate transport in the brain and spinal cord. […] Results from each plate were normalized to the DMSO treated control wells and expressed as fold-induction. EC50 values were calculated using GraphPad Prism software.

[5] = tested on: SMN-containing gems in fibroblast cells from a type 1 SMA patient (3813 cells); assay: Gem count by immunohistochemistry in type 1 SMA patient fibroblasts (3813 cells); type: cell-based, human; conditions: for Number of gems per 100 nuclei, Treated Cells: 48 hours
From the text: SMN protein can be found in punctate nuclear particles called “gems” (Liu and Dreyfuss, EMBO J. 15(14): 3555-3565 (1996)). In fibroblast cells derived from SMA patients, the number of gems corresponds to disease severity as follows: severe type 1 patients have approximately 5 gems per 100 nuclei; mild type 3 patients have 20-50 gems per 100 nuclei; normal individuals have approximately 100-150 gems per 100 nuclei (Coovert et al., Hum Mol Genet 6(8): 1205-1214 (1997), Young et al., Exp Cell Res 265(2): 252-261 (2001)).
Following these methods, fibroblast cells from a type 1 SMA patient (3813 cells, Coriell Cell Repositories) were treated for 48 hours with the compounds indicated in Table 2 (reference number—structure correlation is provided in Table 1). The cells were then fixed and incubated with a monoclonal antibody against SMN (4B7, Wolstencroft et al., Hum Mol Genet 14:1199-1210 (2005)). A FITC-conjugated anti-mouse secondary antibody was used to visualize the labeled gems.

SMN = assay: Western blot of SMN in SMA type I fibroblasts (3813 cells); type: cell-based, human; conditions: 48 hours, DMSO = 1
Experimental: Westerns blots were performed using the methods of Mattis et al., Hum Genet 120:589-601(2006)). SMA type I fibroblasts (3813 cells; Coriell Cell Repositories) were treated with compounds for 48 hours. Monoclonal anti-SMN antibody 4B7 (Wolstencroft et al., Hum Mol Genet 14:1199-1210 (2005)) was used to identify SMN. Actin was used as an internal normalization standard and detected with an anti-actin polyclonal rabbit antibody (Sigma-Aldrich). Tobramycin was used for the positive control compound treatment. DMSO is the untreated negative control. Values are presented as the ratio of the signals obtained for SMN and Actin.

[6] = brain, 5 mg/kg, oral, read-out: Brain T½ (converted)
[7] = plasma, 5 mg/kg, oral, read-out: Plasma T½ (converted)
[8] = SMN2-linked luciferase reporter, average
[9] = maximum fold increase of reporter signal, average

| EC50 [3, 8] | EC50 [4] | SMILES | maximal fold induction [2] | maximal fold induction [3, 9] | maximal fold induction [4] | other results |
| --- | --- | --- | --- | --- | --- | --- |
| 324 nM |  | COc1ccc2c(c1)C(=O)N(c1ccc(C(C)(C)C)cc1)C2 [ALB-115210] | 2.9 | 1.47 |  | Brain AUC ([1]; 5 mg/kg, oral): 553.8 ng·h/g; Brain AUC ([1]; 25 mg/kg, oral): 5950.9 ng·h/g; Kp ([1]; 5 mg/kg, oral): 51.7; Kp ([1]; 25 mg/kg, oral): 15; half-life [1, 6]: 0.6 h; half-life ([1]; brain, 25 mg/kg, oral, read-out: Brain T½ (converted)): 2.9 h; AUC ([1]; plasma, 5 mg/kg, oral): 10.7 ng·h/mL; half-life [1, 7]: 9.4 h; AUC ([1]; plasma, 25 mg/kg, oral): 397 ng·h/mL; half-life ([1]; plasma, 25 mg/kg, oral, read-out: Plasma T½ (converted)): 1.1 h |
| 166 nM |  | CC(C)c1ccc(N2Cc3ccc(N(C)S(C)(=O)=O)cc3C2=O)cc1 [ALB-116638] |  |  |  | Brain AUC ([1]; 5 mg/kg, IV): 537.2 ng·h/g; half-life ([1]; brain, 5 mg/kg, IV, read-out: Brain T½ (converted)): 7.3 h; maximal fold induction ([3]; SMN2-linked luciferase reporter, average maximum fold increase): 1.51 |
| 203 nM |  | CC(C)c1ccc(N2Cc3cc4c(cc3C2=O)OCCO4)cc1 [ALB-115498] |  | 1.83 | 0.86 | Brain AUC ([1]; 5 mg/kg, oral): 163.8 ng·h/g; Kp ([1]; 5 mg/kg, oral): 3.43; half-life [1, 6]: 0.5 h; AUC ([1]; plasma, 5 mg/kg, oral): 47.8 ng·h/mL; half-life [1, 7]: 0.6 h; Number of gems per 100 nuclei, Treated Cells ([5]; 1 μM): 14.3 gems per 100 nuclei |
| 50 nM |  | CN(C)Cc1ccc(N2Cc3ccccc3C2=O)cc1 [ALB-116255] |  | 1.09 | 1.2 |  |
| 3560 nM | 6.79 nM | COCC(C)c1ccc(N2Cc3cc4c(cc3C2=O)OCCO4)cc1 (centres unmarked) [ALB-116361] |  | 1.9 | 1.54 |  |

The remaining lines, values behind:

| SMILES | EC50 [3, 8] | EC50 [4] | maximal fold induction [2] | maximal fold induction [3, 9] | maximal fold induction [4] | other results |
| --- | --- | --- | --- | --- | --- | --- |
| CCCc1ccc2c(c1)C(=O)N(c1ccc(C(C)C(=O)O)cc1)C2 (centres unmarked) [Example 2, 2-(4-(1-oxo-6-propylisoindolin-2-yl)phenyl)propanoic acid] |  |  |  |  |  | melting point: 175 to 177 °C |
| CC(C)c1ccc(N2Cc3ccc(Cl)cc3C2=O)cc1 [Example 5, 6-chloro-2-(4-isopropylphenyl)isoindolin-1-one] |  |  |  |  |  | melting point: 206 to 209 °C |
| COc1ccc2c(c1)C(=O)N(c1ccc(C(C)C(=O)OC(C)(C)C)cc1)C2 (centres unmarked) [ALB-112354] | 801 nM | 221 nM | 2 | 1.46 | 1.93 |  |
| CCCC(CCC)C(=O)O [Positive Control, valproic acid, reference compound] |  |  |  |  |  | Number of gems per 100 nuclei, Positive Control ([5]; 1000 μM valproic acid, same patient fibroblasts): 31 gems per 100 nuclei and 38.7 gems per 100 nuclei |
| COc1ccc2c(c1)C(=O)N(c1ccc(C(C)C(=O)O)cc1)C2 (centres unmarked) [ALB-112355] | 83 nM |  | 2.7 | 1.85 |  | Brain AUC ([1]; 5 mg/kg, oral): 570.0 ng·h/g; Kp ([1]; 5 mg/kg, oral): 0.03; half-life [1, 6]: 2.6 h; AUC ([1]; plasma, 5 mg/kg, oral): 21100 ng·h/mL; half-life [1, 7]: 7.6 h; Number of gems per 100 nuclei, Treated Cells ([5]; 0.45 μM): 5.3 gems per 100 nuclei |
| CCCc1ccc2c(c1)C(=O)N(c1ccc(C(C)C(=O)O)cc1)C2 (centres unmarked) [ALB-113310] | 49 nM |  | 3.7 | 2.1 |  | Number of gems per 100 nuclei, Treated Cells ([5]; 3 μM): 53.5 gems per 100 nuclei; SMN:Actin Ratio (SMN; 0.1 uM): 4.8; SMN:Actin Ratio (SMN; 1 uM): 6.2 |
| CC(CN(C)C)c1ccc(N2Cc3ccccc3C2=O)cc1 (centres unmarked) [ALB-113968] | 6030 nM | 1270 nM |  | 1.37 | 1.78 |  |
| CC(C(N)=O)c1ccc(N2Cc3ccccc3C2=O)cc1 (centres unmarked) [ALB-112171] | 6720 nM | 460 nM | 2.2 | 1.34 | 1.9 |  |
